Assay results from the supplement of paper PMC10307832.

Assays:
Test in all cases: relative viability (nuclei count vs DMSO), 5 days (fraction); higher = more cells survive
NCI-H596 = test system: NCI-H596
In short: (§1)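 Lung cancer cell lines were seeded in 1536-well plates and dosed by pin tool the next day, with either a single drug or a fixed anchor-drug dose combined with five library-drug doses (not always all listed) spaced in √10 steps. Five days later, one step fixed the cells and stained their nuclei (final 0.05% Triton X-100, 1% formaldehyde, 1 ug/ml Hoechst), and nuclei were counted on 4× images. Relative viability is the nuclei count in treated wells divided by the count in vehicle wells, and each value is the median of duplicate plates.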

UMC-11 = test system: UMC-11
In short: as §1

NCI-H1993 = test system: NCI-H1993
In short: as §1

NCI-H23 = test system: NCI-H23
In short: as §1

NCI-H1623 = test system: NCI-H1623
In short: as §1

NCI-H1355 = test system: NCI-H1355
In short: as §1

LCLC-97TM1 = test system: LCLC-97TM1
In short: as §1

NCI-H322M = test system: NCI-H322M
In short: as §1

Question: With CCN(CC)CCCCNc1ncc2cc(-c3cc(OC)cc(OC)c3)c(NC(=O)NC(C)(C)C)nc2n1 + Cc1nc(Nc2ncc(C(=O)Nc3c(C)cccc3Cl)s2)cc(N2CCN(CCO)CC2)n1 [Dasatinib] (partner 0.075 µM) as the molecule, how does the relative viability (NCI-H596; first compound 0.01 µM) read?
Answer: 0.633

Question: And the relative viability (NCI-H596; first compound 0.03162 µM)?
Answer: 0.593

Question: What about the relative viability (NCI-H596; first compound 0.1 µM) of the same molecule?
Answer: 0.585

Question: What about the relative viability (NCI-H596; first compound 0.3162 µM) of the same molecule?
Answer: 0.393

Question: What about the relative viability (NCI-H596; first compound 1 µM) of the same molecule?
Answer: 0.44

Question: And the relative viability (UMC-11; first compound 0.01 µM)?
Answer: 0.541

Question: And the relative viability (UMC-11; first compound 0.03162 µM)?
Answer: 0.485

Question: What about the relative viability (UMC-11; first compound 0.1 µM) of the same molecule?
Answer: 0.722

Question: And the relative viability (UMC-11; first compound 0.3162 µM)?
Answer: 0.581

Question: And the relative viability (UMC-11; first compound 1 µM)?
Answer: 0.405

Question: What about the relative viability (NCI-H1993; first compound 0.01 µM) of the same molecule?
Answer: 0.31

Question: And the relative viability (NCI-H1993; first compound 0.03162 µM)?
Answer: 0.604

Question: What about the relative viability (NCI-H1993; first compound 0.1 µM) of the same molecule?
Answer: 0.611

Question: And the relative viability (NCI-H1993; first compound 0.3162 µM)?
Answer: 0.604

Question: What about the relative viability (NCI-H1993; first compound 1 µM) of the same molecule?
Answer: 0.536

Question: And the relative viability (NCI-H23; first compound 0.01 µM)?
Answer: 0.795

Question: What about the relative viability (NCI-H23; first compound 0.03162 µM) of the same molecule?
Answer: 1

Question: What about the relative viability (NCI-H23; first compound 0.1 µM) of the same molecule?
Answer: 0.904

Question: And the relative viability (NCI-H23; first compound 0.3162 µM)?
Answer: 0.925

Question: What about the relative viability (NCI-H23; first compound 1 µM) of the same molecule?
Answer: 0.878

Question: What about the relative viability (NCI-H1623; first compound 0.01 µM) of the same molecule?
Answer: 0.504

Question: And the relative viability (NCI-H1623; first compound 0.03162 µM)?
Answer: 0.449

Question: What about the relative viability (NCI-H1623; first compound 0.1 µM) of the same molecule?
Answer: 0.579

Question: What about the relative viability (NCI-H1623; first compound 0.3162 µM) of the same molecule?
Answer: 0.571

Question: And the relative viability (NCI-H1623; first compound 1 µM)?
Answer: 0.516

Question: And the relative viability (NCI-H1355; first compound 0.01 µM)?
Answer: 0.775

Question: And the relative viability (NCI-H1355; first compound 0.03162 µM)?
Answer: 0.751

Question: What about the relative viability (NCI-H1355; first compound 0.1 µM) of the same molecule?
Answer: 0.746

Question: And the relative viability (NCI-H1355; first compound 0.3162 µM)?
Answer: 0.775

Question: What about the relative viability (NCI-H1355; first compound 1 µM) of the same molecule?
Answer: 0.663

Question: And the relative viability (LCLC-97TM1; first compound 0.01 µM)?
Answer: 0.806

Question: And the relative viability (LCLC-97TM1; first compound 0.03162 µM)?
Answer: 0.877

Question: What about the relative viability (LCLC-97TM1; first compound 0.1 µM) of the same molecule?
Answer: 0.93

Question: And the relative viability (LCLC-97TM1; first compound 0.3162 µM)?
Answer: 0.934

Question: And the relative viability (LCLC-97TM1; first compound 1 µM)?
Answer: 0.838

Question: And the relative viability (NCI-H322M; first compound 0.01 µM)?
Answer: 0.242

Question: And the relative viability (NCI-H322M; first compound 0.03162 µM)?
Answer: 0.246

Question: And the relative viability (NCI-H322M; first compound 0.1 µM)?
Answer: 0.244

Question: And the relative viability (NCI-H322M; first compound 0.3162 µM)?
Answer: 0.257

Question: And the relative viability (NCI-H322M; first compound 1 µM)?
Answer: 0.237

Question: For O=c1cc(N2CCOCC2)oc2c(-c3cccc4c3sc3ccccc34)cccc12 + Cc1nc(Nc2ncc(C(=O)Nc3c(C)cccc3Cl)s2)cc(N2CCN(CCO)CC2)n1 [Dasatinib] (partner 0.075 µM), which relative viability (NCI-H596; first compound 0.01 µM) is on record?
Answer: 0.711

Question: And the relative viability (NCI-H596; first compound 0.03162 µM)?
Answer: 0.574

Question: And the relative viability (NCI-H596; first compound 0.1 µM)?
Answer: 0.561

Question: And the relative viability (NCI-H596; first compound 0.3162 µM)?
Answer: 0.558

Question: And the relative viability (NCI-H596; first compound 1 µM)?
Answer: 0.648

Question: What about the relative viability (UMC-11; first compound 0.01 µM) of the same molecule?
Answer: 0.452

Question: What about the relative viability (UMC-11; first compound 0.03162 µM) of the same molecule?
Answer: 0.471

Question: And the relative viability (UMC-11; first compound 0.1 µM)?
Answer: 0.487

Question: What about the relative viability (UMC-11; first compound 0.3162 µM) of the same molecule?
Answer: 0.439

Question: And the relative viability (UMC-11; first compound 1 µM)?
Answer: 0.527

Question: What about the relative viability (NCI-H1993; first compound 0.01 µM) of the same molecule?
Answer: 0.603

Question: And the relative viability (NCI-H1993; first compound 0.03162 µM)?
Answer: 0.595

Question: What about the relative viability (NCI-H1993; first compound 0.1 µM) of the same molecule?
Answer: 0.657

Question: What about the relative viability (NCI-H1993; first compound 0.3162 µM) of the same molecule?
Answer: 0.554

Question: And the relative viability (NCI-H1993; first compound 1 µM)?
Answer: 0.597

Question: And the relative viability (NCI-H23; first compound 0.01 µM)?
Answer: 0.828

Question: And the relative viability (NCI-H23; first compound 0.03162 µM)?
Answer: 0.911

Question: What about the relative viability (NCI-H23; first compound 0.3162 µM) of the same molecule?
Answer: 0.815

Question: What about the relative viability (NCI-H23; first compound 1 µM) of the same molecule?
Answer: 0.857

Question: What about the relative viability (NCI-H1623; first compound 0.01 µM) of the same molecule?
Answer: 0.456

Question: What about the relative viability (NCI-H1623; first compound 0.03162 µM) of the same molecule?
Answer: 0.517

Question: And the relative viability (NCI-H1623; first compound 0.1 µM)?
Answer: 0.402

Question: What about the relative viability (NCI-H1623; first compound 0.3162 µM) of the same molecule?
Answer: 0.5

Question: And the relative viability (NCI-H1623; first compound 1 µM)?
Answer: 0.438

Question: What about the relative viability (NCI-H1355; first compound 0.01 µM) of the same molecule?
Answer: 0.789

Question: And the relative viability (NCI-H1355; first compound 0.03162 µM)?
Answer: 0.692

Question: What about the relative viability (NCI-H1355; first compound 0.1 µM) of the same molecule?
Answer: 0.695

Question: And the relative viability (NCI-H1355; first compound 0.3162 µM)?
Answer: 0.731

Question: And the relative viability (NCI-H1355; first compound 1 µM)?
Answer: 0.682

Question: And the relative viability (LCLC-97TM1; first compound 0.01 µM)?
Answer: 0.904

Question: What about the relative viability (LCLC-97TM1; first compound 0.03162 µM) of the same molecule?
Answer: 0.86

Question: What about the relative viability (LCLC-97TM1; first compound 0.1 µM) of the same molecule?
Answer: 0.788

Question: And the relative viability (LCLC-97TM1; first compound 0.3162 µM)?
Answer: 0.917

Question: And the relative viability (LCLC-97TM1; first compound 1 µM)?
Answer: 0.898

Question: And the relative viability (NCI-H322M; first compound 0.01 µM)?
Answer: 0.231

Question: And the relative viability (NCI-H322M; first compound 0.03162 µM)?
Answer: 0.255

Question: What about the relative viability (NCI-H322M; first compound 0.1 µM) of the same molecule?
Answer: 0.292

Question: And the relative viability (NCI-H322M; first compound 0.3162 µM)?
Answer: 0.252

Question: What about the relative viability (NCI-H322M; first compound 1 µM) of the same molecule?
Answer: 0.224
